Data taken from patent US20220187282A1, “CARDIOMYOCYTE PROLIFERATION” (The Council of the Queensland Institute of Medical Research, priority 2019, published 2022).

Columns and labels:
Type in all cases: biochemical
[1] = molecular target: kinases (Homo sapiens, UniProt O00444); conditions: PLK4 FRET-Lantha SP; Test Conc(μM) 1
[2] = molecular target: kinases (Homo sapiens, UniProt O15264); conditions: MAPK13 (p38 delta) Z-Lyte SP; Test Conc(μM):ATP Conc(μM) 1:10
[3] = molecular target: kinases (Homo sapiens, UniProt P05129); conditions: PRKCG (PKC gamma) Z-Lyte SP; Test Conc(μM):ATP Conc(μM) 1:25
[4] = molecular target: kinases (Homo sapiens, UniProt P35968); conditions: KDR (VEGFR2) FRET-Z-Lyte SP; Test Conc(μM):ATP Conc(μM) 1:75
Sequence of kinases (Homo sapiens, UniProt P35968) (P35968 20-1356): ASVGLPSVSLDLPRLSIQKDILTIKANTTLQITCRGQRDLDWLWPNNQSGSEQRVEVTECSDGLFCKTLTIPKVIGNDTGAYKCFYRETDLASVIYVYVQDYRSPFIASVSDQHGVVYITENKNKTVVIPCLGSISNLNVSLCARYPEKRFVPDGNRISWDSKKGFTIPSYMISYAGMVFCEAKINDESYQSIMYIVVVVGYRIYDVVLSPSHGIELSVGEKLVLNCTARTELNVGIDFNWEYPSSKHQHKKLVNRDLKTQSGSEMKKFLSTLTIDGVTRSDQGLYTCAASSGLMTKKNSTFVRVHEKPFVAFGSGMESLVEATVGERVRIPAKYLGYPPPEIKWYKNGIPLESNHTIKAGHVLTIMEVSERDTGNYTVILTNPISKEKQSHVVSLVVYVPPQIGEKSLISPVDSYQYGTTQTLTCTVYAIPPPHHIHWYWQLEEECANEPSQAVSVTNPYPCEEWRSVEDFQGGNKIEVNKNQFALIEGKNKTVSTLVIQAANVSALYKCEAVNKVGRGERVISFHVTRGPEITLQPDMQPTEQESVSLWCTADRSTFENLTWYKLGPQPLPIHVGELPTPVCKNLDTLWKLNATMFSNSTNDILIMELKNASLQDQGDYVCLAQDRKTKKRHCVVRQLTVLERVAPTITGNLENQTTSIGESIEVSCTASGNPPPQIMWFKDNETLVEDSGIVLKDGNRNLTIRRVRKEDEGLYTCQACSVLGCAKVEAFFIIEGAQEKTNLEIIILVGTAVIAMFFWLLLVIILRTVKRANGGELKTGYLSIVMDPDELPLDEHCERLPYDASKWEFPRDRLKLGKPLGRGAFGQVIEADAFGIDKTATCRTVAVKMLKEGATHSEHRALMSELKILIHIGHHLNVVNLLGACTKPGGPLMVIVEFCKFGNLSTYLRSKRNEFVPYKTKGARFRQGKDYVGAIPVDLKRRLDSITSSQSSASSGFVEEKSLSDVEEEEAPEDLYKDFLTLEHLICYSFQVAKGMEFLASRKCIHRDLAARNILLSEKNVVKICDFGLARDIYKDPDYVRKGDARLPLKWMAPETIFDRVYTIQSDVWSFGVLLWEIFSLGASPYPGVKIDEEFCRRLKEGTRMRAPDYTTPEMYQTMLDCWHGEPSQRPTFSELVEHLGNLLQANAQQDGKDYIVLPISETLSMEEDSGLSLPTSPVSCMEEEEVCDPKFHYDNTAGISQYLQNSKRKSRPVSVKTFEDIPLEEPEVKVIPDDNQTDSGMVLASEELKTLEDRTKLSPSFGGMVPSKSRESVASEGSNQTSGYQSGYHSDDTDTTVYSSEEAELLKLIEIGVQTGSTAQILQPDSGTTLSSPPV

[5] = molecular target: kinases (Homo sapiens, UniProt P51451); conditions: BLK FRET-Z-Lyte SP; Test Conc(μM):ATP Conc(μM) 1:25
Sequence of kinases (Homo sapiens, UniProt P51451) (P51451 whole entry): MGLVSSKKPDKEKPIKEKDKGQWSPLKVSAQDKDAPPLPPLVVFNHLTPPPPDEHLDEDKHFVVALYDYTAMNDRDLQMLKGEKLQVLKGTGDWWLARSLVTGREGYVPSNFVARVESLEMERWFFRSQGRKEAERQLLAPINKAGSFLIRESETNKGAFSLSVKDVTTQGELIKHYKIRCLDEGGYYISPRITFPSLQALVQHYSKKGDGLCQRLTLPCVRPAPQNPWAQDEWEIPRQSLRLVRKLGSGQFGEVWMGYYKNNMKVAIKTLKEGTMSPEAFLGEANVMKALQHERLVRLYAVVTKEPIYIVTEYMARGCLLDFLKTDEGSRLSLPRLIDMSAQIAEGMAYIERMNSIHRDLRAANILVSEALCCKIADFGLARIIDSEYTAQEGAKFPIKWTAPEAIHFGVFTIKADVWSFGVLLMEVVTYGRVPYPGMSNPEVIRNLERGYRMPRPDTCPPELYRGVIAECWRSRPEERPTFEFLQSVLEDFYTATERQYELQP

[6] = molecular target: kinases (Homo sapiens, UniProt P51813); conditions: BMX FRET-Z-Lyte SP; Test Conc(μM):ATP Conc(μM) 1:100
[7] = molecular target: kinases (Homo sapiens, UniProt P78527); conditions: DNA-PK FRET-Z-Lyte SP; Test Conc(μM):ATP Conc(μM) 1:25
[8] = molecular target: kinases (Homo sapiens, UniProt Q00537); conditions: CDK17/cyclin Y FRET-Z-Lyte SP; Test Conc(μM):ATP Conc(μM) 1:50
[9] = molecular target: kinases (Homo sapiens, UniProt Q15303); conditions: ERBB4 (HER4) *Mn* Z-Lyte SP; Test Conc(μM):ATP Conc(μM) 1:5
[10] = molecular target: kinases (Homo sapiens, UniProt Q52WX2); conditions: SBK1 FRET-Z-Lyte SP; Test Conc(μM):ATP Conc(μM) 1:5
[11] = molecular target: kinases (Homo sapiens, UniProt Q8NEB9); conditions: PIK3C3 (hVPS34) *Mn* Adapta SP; Test Conc(μM):ATP Conc(μM) 1:10
[12] = molecular target: kinases (Homo sapiens, UniProt Q96RR4); conditions: CAMKK2 (Beta) FRET-Lantha SP; Test Conc(μM) 1
Sequence of kinases (Homo sapiens, UniProt Q96RR4) (Q96RR4 whole entry): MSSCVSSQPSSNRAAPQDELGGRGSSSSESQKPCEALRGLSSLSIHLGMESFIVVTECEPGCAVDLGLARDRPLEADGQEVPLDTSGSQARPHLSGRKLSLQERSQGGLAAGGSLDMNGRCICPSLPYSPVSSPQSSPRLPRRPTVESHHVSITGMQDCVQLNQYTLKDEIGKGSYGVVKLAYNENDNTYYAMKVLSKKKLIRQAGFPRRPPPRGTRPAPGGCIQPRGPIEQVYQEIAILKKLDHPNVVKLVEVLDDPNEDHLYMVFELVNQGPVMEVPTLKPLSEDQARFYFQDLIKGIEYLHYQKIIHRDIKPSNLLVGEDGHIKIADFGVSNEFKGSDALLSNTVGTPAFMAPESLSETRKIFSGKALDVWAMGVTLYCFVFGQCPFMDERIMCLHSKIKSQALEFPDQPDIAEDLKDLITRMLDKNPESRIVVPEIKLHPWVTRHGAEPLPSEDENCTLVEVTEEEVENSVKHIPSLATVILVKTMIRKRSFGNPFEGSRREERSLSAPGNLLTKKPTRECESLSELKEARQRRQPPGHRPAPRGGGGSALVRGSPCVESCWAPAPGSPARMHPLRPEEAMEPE

[13] = molecular target: kinases (Homo sapiens, UniProt Q9NR20); conditions: DYRK4 FRET-Z-Lyte SP; Test Conc(μM):ATP Conc(μM) 1:5
Sequence of kinases (Homo sapiens, UniProt Q9NR20) (Q9NR20 whole entry): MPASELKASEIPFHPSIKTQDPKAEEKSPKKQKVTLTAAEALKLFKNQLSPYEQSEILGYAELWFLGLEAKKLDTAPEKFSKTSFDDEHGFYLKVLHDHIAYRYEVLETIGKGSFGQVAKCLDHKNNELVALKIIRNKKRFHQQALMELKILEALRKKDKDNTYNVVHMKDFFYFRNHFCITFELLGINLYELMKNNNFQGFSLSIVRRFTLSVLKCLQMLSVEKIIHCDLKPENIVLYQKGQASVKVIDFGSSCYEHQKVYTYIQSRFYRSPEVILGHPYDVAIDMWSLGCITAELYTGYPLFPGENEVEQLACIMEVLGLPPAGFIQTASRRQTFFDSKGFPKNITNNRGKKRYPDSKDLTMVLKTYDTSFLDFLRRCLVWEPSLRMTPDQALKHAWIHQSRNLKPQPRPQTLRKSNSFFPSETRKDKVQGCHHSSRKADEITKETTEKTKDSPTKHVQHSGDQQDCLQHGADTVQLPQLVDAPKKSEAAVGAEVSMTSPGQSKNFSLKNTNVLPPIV

[14] = molecular target: kinases (Homo sapiens, UniProt Q9P286); conditions: PAK7 (KIAA1264) FRET-Z-Lyte SP; Test Conc(μM):ATP Conc(μM) 1:5
[15] = molecular target: kinases (Homo sapiens, UniProt Q9UHD2); conditions: TBK1 FRET-Z-Lyte SP; Test Conc(μM):ATP Conc(μM) 1:25
Sequence of kinases (Homo sapiens, UniProt Q9UHD2) (Q9UHD2 whole entry): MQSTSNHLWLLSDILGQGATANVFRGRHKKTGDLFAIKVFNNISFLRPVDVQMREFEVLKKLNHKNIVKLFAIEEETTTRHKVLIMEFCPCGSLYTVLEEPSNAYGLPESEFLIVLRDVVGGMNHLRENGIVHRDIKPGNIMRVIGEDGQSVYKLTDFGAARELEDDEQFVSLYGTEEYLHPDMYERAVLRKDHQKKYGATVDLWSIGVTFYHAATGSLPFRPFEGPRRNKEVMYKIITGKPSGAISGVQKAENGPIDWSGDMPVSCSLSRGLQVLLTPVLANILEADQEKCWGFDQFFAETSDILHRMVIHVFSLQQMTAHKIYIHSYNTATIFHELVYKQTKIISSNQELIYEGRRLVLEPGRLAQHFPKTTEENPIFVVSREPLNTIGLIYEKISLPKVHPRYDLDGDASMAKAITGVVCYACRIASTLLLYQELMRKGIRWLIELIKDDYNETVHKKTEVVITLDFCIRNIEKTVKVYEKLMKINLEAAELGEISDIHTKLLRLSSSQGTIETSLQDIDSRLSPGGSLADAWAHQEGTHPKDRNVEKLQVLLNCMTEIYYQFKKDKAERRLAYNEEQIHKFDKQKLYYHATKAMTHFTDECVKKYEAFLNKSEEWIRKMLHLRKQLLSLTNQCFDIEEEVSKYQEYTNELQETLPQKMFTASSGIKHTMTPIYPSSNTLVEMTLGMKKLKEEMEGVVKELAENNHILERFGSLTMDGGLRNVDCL

Sequence of kinases (Homo sapiens, UniProt O15264) (O15264 whole entry): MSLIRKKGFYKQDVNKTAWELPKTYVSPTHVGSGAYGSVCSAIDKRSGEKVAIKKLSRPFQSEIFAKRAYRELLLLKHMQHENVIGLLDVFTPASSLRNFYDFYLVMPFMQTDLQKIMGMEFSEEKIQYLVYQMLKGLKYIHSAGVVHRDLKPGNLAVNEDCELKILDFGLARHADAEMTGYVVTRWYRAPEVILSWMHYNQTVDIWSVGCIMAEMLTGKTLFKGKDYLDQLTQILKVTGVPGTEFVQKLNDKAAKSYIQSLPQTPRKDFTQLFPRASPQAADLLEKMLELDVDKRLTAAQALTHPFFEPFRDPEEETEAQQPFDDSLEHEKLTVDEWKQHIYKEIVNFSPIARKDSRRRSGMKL

SMILES | Mean Inhib (%) [1] | Mean Inhib (%) [2] | Mean Inhib (%) [3] | Mean Inhib (%) [4] | Mean Inhib (%) [5] | Mean Inhib (%) [6] | Mean Inhib (%) [7] | Mean Inhib (%) [8] | Mean Inhib (%) [9] | Mean Inhib (%) [10] | Mean Inhib (%) [11] | Mean Inhib (%) [12] | Mean Inhib (%) [13] | Mean Inhib (%) [14] | Mean Inhib (%) [15]
Cc1ccc(NC(=O)c2ccnc(N3CCOCC3)c2)cc1Nc1ccnc(N2CC(C)OC(C)C2)n1 (stereo not drawn) [compound 3] | 0.2% | 4.7% | 20.4% | 3.2% | 3.0% | 7.2% | 13.7% | 0.9% | 0.8% | 3.3% | 3.5% | −2.5% | 0.9% | 3.9% | −0.8%
Cc1cc(Oc2ccnc(Nc3ccc(S(N)(=O)=O)cc3)c2)c(-c2ccccn2)nc1C [compound 65] | 6.1% | 3.7% | −13.8% | 3.8% | 9.7% | 18.7% | 13.9% | 9.6% | 3.4% | −6.2% | 1.1% | −3.4% | −4.9% | 4.7% | 4.2%
